In patent US12331044B2, “Inhibitors of histone deacetylase useful for the treatment or prevention of HIV infection” (Merck Sharp & Dohme LLC, priority 2018, dated 2025) one finds EC50 and IC50 data, which are given here for seven compounds.

For one test, the system named is KARN cells (Jurkat 2C4). Description: cells. Conditions: Homo sapiens.
The target of test [1] is human HDAC3/SMRT heterodimer (Homo sapiens (Human), UniProt O15379). Kind of test: biochemical.
The next test concerns the target human HDAC8 (Homo sapiens (Human), UniProt Q9BY41). Description: HDAC8 inhibition assay (modified FLUOR DE LYS, 384-well). In kind it is biochemical. Conditions: […] nM enzyme, 200 μM substrate BML-KI178, 3 h pre-incubation; read-out: HDAC8 IC50.
Another test concerns the target HDAC6 (Homo sapiens (Human), UniProt Q9UBN7). Kind of test: biochemical.
The target of another test is human HDAC1 (Homo sapiens (Human), UniProt Q13547). Kind of test: biochemical.
Another test has as its target human HDAC2 (Homo sapiens (Human), UniProt Q92769). Kind of test: HDAC2 inhibition assay (modified FLUOR DE LYS, 384-well). The settings on record: […] nM enzyme, 40 μM substrate BML-KI104, 3 h pre-incubation; read-out: HDAC2 IC50. Type of test: biochemical.
The mark [2] stands for this setting: read-out: Karn EC50 nM 0.1% NHS, 0.1% normal human serum, luciferase induction, 2 μM SAHA = 100%.
[3] abbreviates: read-out: Karn EC50 nM 5% NHS, 5% normal human serum, luciferase induction, 2 μM SAHA = 100%.

Read-outs that look alike come from different tables or passages of the source. Bounds are passed on as bounds.

Sequence of human HDAC3/SMRT heterodimer (O15379 whole entry): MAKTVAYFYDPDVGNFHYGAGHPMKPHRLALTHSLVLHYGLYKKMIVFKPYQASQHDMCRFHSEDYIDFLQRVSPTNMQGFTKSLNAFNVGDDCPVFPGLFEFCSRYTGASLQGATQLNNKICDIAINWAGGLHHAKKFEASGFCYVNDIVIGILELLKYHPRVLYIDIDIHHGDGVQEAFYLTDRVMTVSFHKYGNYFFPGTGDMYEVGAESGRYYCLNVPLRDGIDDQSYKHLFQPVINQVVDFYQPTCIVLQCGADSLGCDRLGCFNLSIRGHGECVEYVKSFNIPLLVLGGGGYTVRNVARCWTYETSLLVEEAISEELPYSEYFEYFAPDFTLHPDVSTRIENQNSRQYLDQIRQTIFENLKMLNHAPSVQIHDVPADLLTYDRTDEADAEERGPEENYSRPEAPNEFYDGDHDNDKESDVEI
Sequence of human HDAC3/SMRT heterodimer (Q9Y618 1-899 partner): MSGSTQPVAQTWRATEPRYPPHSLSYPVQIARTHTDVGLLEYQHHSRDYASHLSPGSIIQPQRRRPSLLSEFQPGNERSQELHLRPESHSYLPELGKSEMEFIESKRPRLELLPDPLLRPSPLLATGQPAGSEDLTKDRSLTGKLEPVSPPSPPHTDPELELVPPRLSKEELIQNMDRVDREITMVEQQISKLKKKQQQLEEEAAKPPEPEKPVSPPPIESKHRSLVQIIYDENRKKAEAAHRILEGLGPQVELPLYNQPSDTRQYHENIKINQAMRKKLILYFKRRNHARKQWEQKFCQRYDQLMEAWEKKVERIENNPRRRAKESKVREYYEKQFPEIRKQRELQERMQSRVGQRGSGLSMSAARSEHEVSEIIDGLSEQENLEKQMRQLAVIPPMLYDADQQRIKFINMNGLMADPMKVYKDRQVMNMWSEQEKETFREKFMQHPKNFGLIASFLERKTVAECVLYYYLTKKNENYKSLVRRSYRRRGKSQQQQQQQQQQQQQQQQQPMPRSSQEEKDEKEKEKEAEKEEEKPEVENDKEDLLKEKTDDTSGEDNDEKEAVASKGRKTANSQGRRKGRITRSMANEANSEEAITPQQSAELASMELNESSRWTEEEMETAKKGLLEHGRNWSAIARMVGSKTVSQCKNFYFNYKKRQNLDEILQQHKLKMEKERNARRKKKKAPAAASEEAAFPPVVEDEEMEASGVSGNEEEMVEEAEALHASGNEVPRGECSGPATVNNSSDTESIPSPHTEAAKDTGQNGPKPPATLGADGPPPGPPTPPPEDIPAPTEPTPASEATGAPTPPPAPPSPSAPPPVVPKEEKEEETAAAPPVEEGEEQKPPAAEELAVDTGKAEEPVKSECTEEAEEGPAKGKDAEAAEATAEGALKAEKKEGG
Sequence of HDAC6 (Q9UBN7 whole entry): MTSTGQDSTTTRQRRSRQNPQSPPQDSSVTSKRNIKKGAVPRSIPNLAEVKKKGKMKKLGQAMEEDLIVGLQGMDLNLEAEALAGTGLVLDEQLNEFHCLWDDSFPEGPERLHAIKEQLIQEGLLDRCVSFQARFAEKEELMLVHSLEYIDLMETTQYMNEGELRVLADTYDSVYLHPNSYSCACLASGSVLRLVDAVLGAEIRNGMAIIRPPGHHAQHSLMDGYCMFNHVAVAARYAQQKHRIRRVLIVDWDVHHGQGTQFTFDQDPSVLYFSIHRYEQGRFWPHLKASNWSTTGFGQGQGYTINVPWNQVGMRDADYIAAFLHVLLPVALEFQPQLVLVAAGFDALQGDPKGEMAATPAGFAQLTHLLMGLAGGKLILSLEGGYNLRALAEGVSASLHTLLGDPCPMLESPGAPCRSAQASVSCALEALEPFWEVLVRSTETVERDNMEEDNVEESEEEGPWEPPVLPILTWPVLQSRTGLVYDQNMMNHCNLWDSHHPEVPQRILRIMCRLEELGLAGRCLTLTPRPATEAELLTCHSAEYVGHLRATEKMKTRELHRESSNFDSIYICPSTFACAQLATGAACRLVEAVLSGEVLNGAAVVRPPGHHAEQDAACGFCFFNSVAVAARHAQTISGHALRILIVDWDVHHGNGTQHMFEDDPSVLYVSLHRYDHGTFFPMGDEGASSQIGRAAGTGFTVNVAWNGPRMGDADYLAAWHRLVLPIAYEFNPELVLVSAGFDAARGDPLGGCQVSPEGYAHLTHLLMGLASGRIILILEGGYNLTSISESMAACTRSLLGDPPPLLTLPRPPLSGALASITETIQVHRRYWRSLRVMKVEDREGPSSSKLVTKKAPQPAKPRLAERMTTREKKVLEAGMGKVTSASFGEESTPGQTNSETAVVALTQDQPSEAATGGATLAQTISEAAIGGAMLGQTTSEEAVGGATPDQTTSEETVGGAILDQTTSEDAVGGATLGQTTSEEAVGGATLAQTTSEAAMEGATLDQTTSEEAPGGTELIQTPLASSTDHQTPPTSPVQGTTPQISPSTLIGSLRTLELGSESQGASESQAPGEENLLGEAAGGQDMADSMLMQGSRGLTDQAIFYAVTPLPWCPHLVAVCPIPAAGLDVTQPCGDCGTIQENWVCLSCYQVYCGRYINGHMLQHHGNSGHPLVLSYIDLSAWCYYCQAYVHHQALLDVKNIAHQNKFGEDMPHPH
Sequence of human HDAC2 (Q92769 whole entry): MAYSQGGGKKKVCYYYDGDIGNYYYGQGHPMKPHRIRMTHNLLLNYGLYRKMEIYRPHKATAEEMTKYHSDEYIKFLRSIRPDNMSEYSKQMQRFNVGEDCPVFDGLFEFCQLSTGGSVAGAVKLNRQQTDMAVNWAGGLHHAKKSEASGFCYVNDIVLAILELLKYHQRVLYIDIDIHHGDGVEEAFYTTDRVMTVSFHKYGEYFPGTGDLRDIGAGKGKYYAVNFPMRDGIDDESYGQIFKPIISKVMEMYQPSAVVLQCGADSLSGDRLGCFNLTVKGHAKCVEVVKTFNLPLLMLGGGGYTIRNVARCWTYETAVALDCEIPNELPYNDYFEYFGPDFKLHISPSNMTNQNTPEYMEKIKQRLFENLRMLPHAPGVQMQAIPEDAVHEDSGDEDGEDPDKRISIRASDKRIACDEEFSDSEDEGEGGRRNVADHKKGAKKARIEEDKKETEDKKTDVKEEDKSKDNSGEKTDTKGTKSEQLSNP
Sequence of human HDAC8 (Q9BY41 whole entry): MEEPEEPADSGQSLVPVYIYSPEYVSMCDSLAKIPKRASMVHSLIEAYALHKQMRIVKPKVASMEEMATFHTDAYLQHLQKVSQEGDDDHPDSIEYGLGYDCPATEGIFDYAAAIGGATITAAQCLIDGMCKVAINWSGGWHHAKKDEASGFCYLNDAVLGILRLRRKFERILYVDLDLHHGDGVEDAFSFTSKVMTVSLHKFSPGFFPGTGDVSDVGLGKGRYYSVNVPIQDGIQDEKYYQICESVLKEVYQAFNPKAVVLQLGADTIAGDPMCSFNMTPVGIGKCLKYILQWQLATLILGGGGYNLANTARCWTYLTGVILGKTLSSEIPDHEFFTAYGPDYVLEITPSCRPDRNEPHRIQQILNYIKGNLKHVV
Sequence of human HDAC1 (Q13547 whole entry): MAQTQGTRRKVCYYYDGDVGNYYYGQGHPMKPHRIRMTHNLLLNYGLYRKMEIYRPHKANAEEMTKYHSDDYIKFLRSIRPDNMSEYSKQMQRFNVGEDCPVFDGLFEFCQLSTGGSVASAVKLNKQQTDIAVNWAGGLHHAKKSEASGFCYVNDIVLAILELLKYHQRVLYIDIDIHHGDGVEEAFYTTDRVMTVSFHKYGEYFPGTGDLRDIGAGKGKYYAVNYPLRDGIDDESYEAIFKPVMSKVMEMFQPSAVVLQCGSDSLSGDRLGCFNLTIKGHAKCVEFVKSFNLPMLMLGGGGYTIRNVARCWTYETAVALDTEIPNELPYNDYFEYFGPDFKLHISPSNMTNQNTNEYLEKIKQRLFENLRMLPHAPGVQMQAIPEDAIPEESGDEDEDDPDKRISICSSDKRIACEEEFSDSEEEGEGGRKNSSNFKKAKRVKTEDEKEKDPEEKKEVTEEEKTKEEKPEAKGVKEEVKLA
Experimental for HDAC6: The histone deacetylase activities of HDAC1, HDAC2, HDAC3, HDAC6, and HDAC8 were measured in modified FLUOR DE LYS assays in 384-well format. In this assay, HDAC enzymes are initially incubated with an F-acetyl (or -trifluoroacetyl)-L-lysine-containing substrate with a C-terminal amide having aminomethylcoumarin as the amine component. HDACs cleave the F-acetyl group, rendering the resulting product susceptible to AMC cleavage by trypsin. The released AMC is then detected by its fluorescence. […] All steps were performed at room temperature (23° C.). The assay was performed by pre-incubating serial dilutions of test compounds with the target HDAC prior to initiation with substrate. […] Final conditions used for each assay were: 1. […] The reactions were stopped and developed by addition of 30 ul of HDAC developer solution containing a saturating level of HDAC inhibitor as follows: 1. […] For data analysis, background subtracted product (fluorescence) vs. time data for each inhibitor concentration was fitted using a 4-parameter fit.

One may read the EC50 as the concentration that produces a half-maximal response. For orientation: IC50 means the concentration needed to halve the response being measured. Turning to `COc1cc2nc(C)ccc2cc1-c1cnc([C@H](CCCCCC(=O)c2ncco2)NC(=O)C2CN(C)C2)o1` [Example 100, (S)-N-(1-(5-(7-methoxy-2-methylquinolin-6-yl)oxazol-2-yl)-7-(oxazol-2-yl)-7-oxoheptyl)-1-methylazetidine-3-carboxamide], the EC50 turned out to be 19 nM with KARN cells (Jurkat 2C4) (read-out: Karn EC50 nM 0.1% NHS) and 21 nM in the test on KARN cells (Jurkat 2C4) (read-out: Karn EC50 nM 5% NHS). Besides, the IC50 in test [1] came out at 0.28 nM; at human HDAC8 it was 130 nM; on HDAC6 it was 620 nM; against human HDAC1, 0.45 nM; at human HDAC2, 1.3 nM.

Consider `CN1CC(C(=O)N[C@@H](CCCCCC(=O)c2ncco2)c2[nH]c(-c3ccc(F)cc3)nc2Cl)C1` [Example 101, (S)-N-(1-(4-chloro-2-(4-fluorophenyl)-1H-imidazol-5-yl)-7-(oxazol-2-yl)-7-oxoheptyl)-1-methylazetidine-3-carboxamide], for which the EC50 in the test on KARN cells (Jurkat 2C4) (setting [2]) stood at 27 nM; in the test with KARN cells (Jurkat 2C4) (setting [3]), 22 nM. Moreover, the IC50 in test [1] was 1.5 nM; on human HDAC8, 340 nM; against HDAC6 it was at least 45000 nM; at human HDAC1 it was 1.5 nM; at human HDAC2 it was 1.5 nM.

As to `CN1CC(C(=O)N[C@@H](CCCCCC(=O)c2ccon2)c2[nH]c(-c3ccccc3F)nc2Cl)C1` [Example 105, (S)-N-(1-(4-chloro-2-(2-fluorophenyl)-1H-imidazol-5-yl)-7-(isoxazol-3-yl)-7-oxoheptyl)-1-methylazetidine-3-carboxamide], the EC50 with KARN cells (Jurkat 2C4) (setting [2]) was 2.8 nM; in the test with KARN cells (Jurkat 2C4) (setting [3]), 3.5 nM. Besides, the concentration for half-maximal inhibition (IC50) in test [1] came out at 0.046 nM; on human HDAC8, 29 nM; against HDAC6, 8500 nM; against human HDAC1, 0.12 nM; on human HDAC2, 0.37 nM.

With `COc1cc2nc(C)ccc2cc1-c1cnc([C@H](CCCCCC(=O)c2ccon2)NC(=O)C2CN(C)C2)o1` [Example 108, (S)-N-(7-(isoxazol-3-yl)-1-(5-(7-methoxy-2-methylquinolin-6-yl)oxazol-2-yl)-7-oxoheptyl)-1-methylazetidine-3-carboxamide], the EC50 in the test with KARN cells (Jurkat 2C4) (setting [2]) is 6.4 nM; with KARN cells (Jurkat 2C4) (setting [3]), 6.1 nM. The IC50 in test [1] is 0.19 nM; at human HDAC8 it was 5.8 nM; against HDAC6, above 900 nM; against human HDAC1 it was 0.18 nM; on human HDAC2, 0.35 nM.

Turning to `COc1cc2nc(C)ccc2cc1-c1cnc([C@H](CCCCCC(=O)c2ccon2)NC(=O)[C@H]2CC23CCN(C)CC3)[nH]1` [Example 110, (S)-N-((S)-7-(isoxazol-3-yl)-1-(5-(7-methoxy-2-methylquinolin-6-yl)-1H-imidazol-2-yl)-7-oxoheptyl)-6-methyl-6-azaspiro[2.5]octane-1-carboxamide], the EC50 with KARN cells (Jurkat 2C4) (setting [2]) and with KARN cells (Jurkat 2C4) (setting [3]) was 11 nM in each case. For the same compound, the IC50 was found to be 0.18 nM in test [1]; 2.7 nM at human HDAC8; 2500 nM at HDAC6; 0.18 nM against human HDAC1; 0.87 nM at human HDAC2.

`COc1ncccc1-c1cnc(C(CCCCCC(=O)c2ncco2)NC(=O)[C@H]2CC23CCN(C)CC3)o1` (stereo partly drawn) [Example 114, (1S)-N-(1-(5-(2-methoxypyridin-3-yl)oxazol-2-yl)-7-(oxazol-2-yl)-7-oxoheptyl)-6-methyl-6-azaspiro[2.5]octane-1-carboxamide]: the EC50 with KARN cells (Jurkat 2C4) (setting [2]) is 3400 nM; in the test with KARN cells (Jurkat 2C4) (setting [3]) it was 4200 nM. Also, the IC50 in test [1] was 13 nM; at human HDAC8, above 900 nM; against HDAC6 it was above 900 nM; on human HDAC1 it was 26 nM; at human HDAC2, 120 nM.

For the compound `Cc1ccc2cc(-c3cnc([C@H](CCCCCC(=O)c4ncco4)NC(=O)C4=NOC5(CCN(C)CC5)C4)o3)ccc2n1` [Example 116, (S)-8-methyl-N-(1-(5-(2-methylquinolin-6-yl)oxazol-2-yl)-7-(oxazol-2-yl)-7-oxoheptyl)-1-oxa-2,8-diazaspiro[4.5]dec-2-ene-3-carboxamide], the EC50 in the test with KARN cells (Jurkat 2C4) (setting [2]) was 95 nM; in the test on KARN cells (Jurkat 2C4) (setting [3]), 120 nM. The IC50 in test [1] was found to be 1.5 nM; on human HDAC8 it was 250 nM; on HDAC6 it was 4100 nM; against human HDAC1 it was 4.8 nM; at human HDAC2 it was 9.7 nM.
